Reference: US20230220105A1, “TUMOR ACTIVATED T CELL ENGAGERS AND METHODS OF USE THEREOF” (Janux Therapeutics, Inc., priority 2019, published 2023)

What was measured:
MAGE-A3 TCR (TCR-1) [1] = assay: Kinetic binding of TCR to peptides (Octet BLI); settings: Table 3; Ala mutants of Peptide-5 and controls
Protocol: BLI based kinetic binding of TCR to peptides was measured using a ForteBio Octet RED96 instrument. Biotinylated peptides were first directly captured on streptavidin biosensors. Sensors were quenched using excess biocytin and then baselined in buffer. A dilution series of TCR was made and associated onto the peptide loaded biosensor. Association and dissociation signals were monitored in real-time. Signals were fit to a 1:1 binding model in order to derive binding constants, kon and koff, as well as KD.

[2] = system: TCR-1 binding to MAGE-A3 pMHC; assay: Inhibition of kinetic binding of TCR to its cognate pMHC (BLI); settings: Table 3
Protocol: First, biotinylated pMHC was captured on streptavidin biosensors. Sensors were quenched using excess biocytin and then baselined in buffer. Inhibitory peptide was titrated in a two fold dilution series starting from 100 uM and pre-incubated with a constant concentration of 50 nM TCR. Peptide and TCR mixtures were then associated onto the pMHC loaded biosensor. Zero concentration of inhibitory peptide or zero concentration of TCR were used as controls. Association and dissociation signals were monitored in real-time. The maximal association signal was normalized from 100% (0 uM inhibitory peptide control) to 0% (0 nM TCR control) and plotted versus log-scale inhibitory peptide concentration.

MAGE-A3 TCR (TCR-1) [3] = assay: Equilibrium binding of TCR to peptides (ELISA)
Protocol: Peptide binding was also examined in an ELISA format. Biotinylated peptides were captured on neutravidin coated plates. TCR was then prepared in a half-log dilution series starting from 10 uM and titrated onto the peptide captured plates. […] The concentration of TCR required to observe half maximal binding signal (EC50) was then calculated using Graphpad Prism.

Row | Molecule | Octet BLI Binds TCR (MAGE-A3 TCR (TCR-1) [1]) | Octet BLI Competes at 100 uM [2] | EC50 (MAGE-A3 TCR (TCR-1) [3]; Table 3) | binding to TCR-1, Ala scan and control peptides (MAGE-A3 TCR (TCR-1) [3]; relative to Peptide-5) | EC50 (MAGE-A3 TCR (TCR-1) [3]; Table 2, TCR-1 titrated on captured peptide)
1 | CC(C)[C@@H]1NC(=O)[C@H](CC(=O)O)NC(=O)[C@H](CCCCN)NC(=O)[C@@H](NC(=O)[C@H](CO)NC(=O)[C@H](C)NC(=O)CNC(=O)CN)CSSC[C@@H](C(=O)N[C@@H](Cc2c[nH]c3ccccc23)C(=O)N[C@H](C(=O)NCC(=O)NCC(=O)NCC(=O)NCC(=O)N[C@@H](CO)C(=O)NCCOCCOCCOCCOCCC(=O)N[C@@H](CCCCNC(=O)CCCC[C@@H]2SC[C@@H]3NC(=O)N[C@@H]32)C(N)=O)[C@@H](C)O)NC(=O)[C@H](Cc2ccccc2)NC(=O)[C@H](C)NC(=O)[C@H](CCC(=O)O)NC(=O)[C@H](CC(=O)O)NC(=O)[C@H](Cc2ccc(O)cc2)NC1=O [Peptide-21] | Yes | Yes |  |  | 
2 | CC(C)[C@H](NC(=O)CNC(=O)CN)C(=O)N[C@@H](C)C(=O)N[C@H]1CSSC[C@@H](C(=O)N[C@@H](Cc2c[nH]c3ccccc23)C(=O)N[C@H](C(=O)NCC(=O)NCC(=O)NCC(=O)NCC(=O)N[C@@H](CO)C(=O)NCCOCCOCCOCCOCCC(=O)N[C@@H](CCCCNC(=O)CCCC[C@@H]2SC[C@@H]3NC(=O)N[C@@H]32)C(N)=O)[C@@H](C)O)NC(=O)[C@H](Cc2ccccc2)NC(=O)[C@H](C)NC(=O)[C@H](CCC(=O)O)NC(=O)[C@H](CC(=O)O)NC(=O)[C@H](Cc2ccc(O)cc2)NC(=O)[C@H](C(C)C)NC(=O)[C@H](CC(=O)O)NC(=O)[C@H](CCCCN)NC1=O [Peptide-22] | No |  |  |  | 
3 | CC(C)[C@H](NC(=O)CNC(=O)CN)C(=O)N[C@@H](CO)C(=O)N[C@@H](C)C(=O)N[C@@H](CCCCN)C(=O)N[C@@H](CC(=O)O)C(=O)N[C@H](C(=O)N[C@@H](Cc1ccc(O)cc1)C(=O)N[C@@H](CC(=O)O)C(=O)N[C@@H](CCC(=O)O)C(=O)N[C@@H](C)C(=O)N[C@@H](Cc1ccccc1)C(=O)N[C@@H](CS)C(=O)N[C@@H](Cc1c[nH]c2ccccc12)C(=O)N[C@H](C(=O)NCC(=O)NCC(=O)NCC(=O)NCC(=O)N[C@@H](CO)C(=O)NCCOCCOCCOCCOCCC(=O)N[C@@H](CCCCNC(=O)CCCC[C@@H]1SC[C@@H]2NC(=O)N[C@@H]21)C(N)=O)[C@@H](C)O)C(C)C [Peptide-23] | Yes | Yes | > 10 µM |  | 
4 | CC(C)[C@H](NC(=O)CNC(=O)CN)C(=O)N[C@@H](CO)C(=O)N[C@H]1CSSC[C@@H](C(=O)N[C@@H](Cc2c[nH]c3ccccc23)C(=O)N[C@H](C(=O)NCC(=O)NCC(=O)NCC(=O)NCC(=O)N[C@@H](CO)C(=O)NCCOCCOCCOCCOCCC(=O)N[C@@H](CCCCNC(=O)CCCC[C@@H]2SC[C@@H]3NC(=O)N[C@@H]32)C(N)=O)[C@@H](C)O)NC(=O)[C@H](Cc2ccccc2)NC(=O)[C@H](C)NC(=O)[C@H](CCC(=O)O)NC(=O)[C@H](CC(=O)O)NC(=O)[C@H](Cc2ccc(O)cc2)NC(=O)[C@H](C(C)C)NC(=O)[C@H](CC(=O)O)NC(=O)[C@H](C)NC1=O [Peptide-24] | Yes | Yes |  |  | 
5 | CC(C)[C@H](NC(=O)CNC(=O)CN)C(=O)N[C@@H](CO)C(=O)N[C@H]1CSSC[C@@H](C(=O)N[C@@H](Cc2c[nH]c3ccccc23)C(=O)N[C@H](C(=O)NCC(=O)NCC(=O)NCC(=O)NCC(=O)N[C@@H](CO)C(=O)NCCOCCOCCOCCOCCC(=O)N[C@@H](CCCCNC(=O)CCCC[C@@H]2SC[C@@H]3NC(=O)N[C@@H]32)C(N)=O)[C@@H](C)O)NC(=O)[C@H](Cc2ccccc2)NC(=O)[C@H](C)NC(=O)[C@H](CCC(=O)O)NC(=O)[C@H](CC(=O)O)NC(=O)[C@H](Cc2ccc(O)cc2)NC(=O)[C@H](C(C)C)NC(=O)[C@H](C)NC(=O)[C@H](CCCCN)NC1=O [Peptide-25] | Weak |  |  |  | 
6 | CC(C)[C@H](NC(=O)CNC(=O)CN)C(=O)N[C@@H](CO)C(=O)N[C@H]1CSSC[C@@H](C(=O)N[C@@H](Cc2c[nH]c3ccccc23)C(=O)N[C@H](C(=O)NCC(=O)NCC(=O)NCC(=O)NCC(=O)N[C@@H](CO)C(=O)NCCOCCOCCOCCOCCC(=O)N[C@@H](CCCCNC(=O)CCCC[C@@H]2SC[C@@H]3NC(=O)N[C@@H]32)C(N)=O)[C@@H](C)O)NC(=O)[C@H](Cc2ccccc2)NC(=O)[C@H](C)NC(=O)[C@H](CCC(=O)O)NC(=O)[C@H](CC(=O)O)NC(=O)[C@H](Cc2ccc(O)cc2)NC(=O)[C@H](C)NC(=O)[C@H](CC(=O)O)NC(=O)[C@H](CCCCN)NC1=O [Peptide-26] | No |  |  |  | 
7 | CC(C)[C@H](NC(=O)CNC(=O)CN)C(=O)N[C@@H](CO)C(=O)N[C@H]1CSSC[C@@H](C(=O)N[C@@H](Cc2c[nH]c3ccccc23)C(=O)N[C@H](C(=O)NCC(=O)NCC(=O)NCC(=O)NCC(=O)N[C@@H](CO)C(=O)NCCOCCOCCOCCOCCC(=O)N[C@@H](CCCCNC(=O)CCCC[C@@H]2SC[C@@H]3NC(=O)N[C@@H]32)C(N)=O)[C@@H](C)O)NC(=O)[C@H](Cc2ccccc2)NC(=O)[C@H](C)NC(=O)[C@H](CCC(=O)O)NC(=O)[C@H](CC(=O)O)NC(=O)[C@H](C)NC(=O)[C@H](C(C)C)NC(=O)[C@H](CC(=O)O)NC(=O)[C@H](CCCCN)NC1=O [Peptide-27] | No |  | > 10 µM |  | 
8 | CC(C)[C@H](NC(=O)CNC(=O)CN)C(=O)N[C@@H](CO)C(=O)N[C@H]1CSSC[C@@H](C(=O)N[C@@H](Cc2c[nH]c3ccccc23)C(=O)N[C@H](C(=O)NCC(=O)NCC(=O)NCC(=O)NCC(=O)N[C@@H](CO)C(=O)NCCOCCOCCOCCOCCC(=O)N[C@@H](CCCCNC(=O)CCCC[C@@H]2SC[C@@H]3NC(=O)N[C@@H]32)C(N)=O)[C@@H](C)O)NC(=O)[C@H](Cc2ccccc2)NC(=O)[C@H](C)NC(=O)[C@H](CCC(=O)O)NC(=O)[C@H](C)NC(=O)[C@H](Cc2ccc(O)cc2)NC(=O)[C@H](C(C)C)NC(=O)[C@H](CC(=O)O)NC(=O)[C@H](CCCCN)NC1=O [Peptide-28] | Yes | Yes |  |  | 
9 | CC(C)[C@H](NC(=O)CNC(=O)CN)C(=O)N[C@@H](CO)C(=O)N[C@H]1CSSC[C@@H](C(=O)N[C@@H](Cc2c[nH]c3ccccc23)C(=O)N[C@H](C(=O)NCC(=O)NCC(=O)NCC(=O)NCC(=O)N[C@@H](CO)C(=O)NCCOCCOCCOCCOCCC(=O)N[C@@H](CCCCNC(=O)CCCC[C@@H]2SC[C@@H]3NC(=O)N[C@@H]32)C(N)=O)[C@@H](C)O)NC(=O)[C@H](Cc2ccccc2)NC(=O)[C@H](C)NC(=O)[C@H](C)NC(=O)[C@H](CC(=O)O)NC(=O)[C@H](Cc2ccc(O)cc2)NC(=O)[C@H](C(C)C)NC(=O)[C@H](CC(=O)O)NC(=O)[C@H](CCCCN)NC1=O [Peptide-29] | No |  |  |  | 
10 | CC(C)[C@H](NC(=O)CNC(=O)CN)C(=O)N[C@@H](CO)C(=O)N[C@H]1CSSC[C@@H](C(=O)N[C@@H](Cc2c[nH]c3ccccc23)C(=O)N[C@H](C(=O)NCC(=O)NCC(=O)NCC(=O)NCC(=O)N[C@@H](CO)C(=O)NCCOCCOCCOCCOCCC(=O)N[C@@H](CCCCNC(=O)CCCC[C@@H]2SC[C@@H]3NC(=O)N[C@@H]32)C(N)=O)[C@@H](C)O)NC(=O)[C@H](C)NC(=O)[C@H](C)NC(=O)[C@H](CCC(=O)O)NC(=O)[C@H](CC(=O)O)NC(=O)[C@H](Cc2ccc(O)cc2)NC(=O)[C@H](C(C)C)NC(=O)[C@H](CC(=O)O)NC(=O)[C@H](CCCCN)NC1=O [Peptide-30] | No |  | > 10 µM |  | 
11 | CC(C)[C@H](NC(=O)CNC(=O)CN)C(=O)N[C@@H](CO)C(=O)N[C@@H](CS)C(=O)N[C@@H](CCCCN)C(=O)N[C@@H](CC(=O)O)C(=O)N[C@H](C(=O)N[C@@H](Cc1ccc(O)cc1)C(=O)N[C@@H](CC(=O)O)C(=O)N[C@@H](CCC(=O)O)C(=O)N[C@@H](C)C(=O)N[C@@H](Cc1ccccc1)C(=O)N[C@@H](C)C(=O)N[C@@H](Cc1c[nH]c2ccccc12)C(=O)N[C@H](C(=O)NCC(=O)NCC(=O)NCC(=O)NCC(=O)N[C@@H](CO)C(=O)NCCOCCOCCOCCOCCC(=O)N[C@@H](CCCCNC(=O)CCCC[C@@H]1SC[C@@H]2NC(=O)N[C@@H]21)C(N)=O)[C@@H](C)O)C(C)C [Peptide-31] | Weak |  | > 10 µM |  | 
12 | CC(C)[C@H](NC(=O)CNC(=O)CN)C(=O)N[C@@H](CO)C(=O)N[C@H]1CSSC[C@@H](C(=O)N[C@@H](C)C(=O)N[C@H](C(=O)NCC(=O)NCC(=O)NCC(=O)NCC(=O)N[C@@H](CO)C(=O)NCCOCCOCCOCCOCCC(=O)N[C@@H](CCCCNC(=O)CCCC[C@@H]2SC[C@@H]3NC(=O)N[C@@H]32)C(N)=O)[C@@H](C)O)NC(=O)[C@H](Cc2ccccc2)NC(=O)[C@H](C)NC(=O)[C@H](CCC(=O)O)NC(=O)[C@H](CC(=O)O)NC(=O)[C@H](Cc2ccc(O)cc2)NC(=O)[C@H](C(C)C)NC(=O)[C@H](CC(=O)O)NC(=O)[C@H](CCCCN)NC1=O [Peptide-32] | Yes | Yes |  |  | 
13 | CC(C)[C@H](NC(=O)CNC(=O)CN)C(=O)N[C@@H](CO)C(=O)N[C@H]1CSSC[C@@H](C(=O)N[C@@H](Cc2c[nH]c3ccccc23)C(=O)N[C@@H](C)C(=O)NCC(=O)NCC(=O)NCC(=O)NCC(=O)N[C@@H](CO)C(=O)NCCOCCOCCOCCOCCC(=O)N[C@@H](CCCCNC(=O)CCCC[C@@H]2SC[C@@H]3NC(=O)N[C@@H]32)C(N)=O)NC(=O)[C@H](Cc2ccccc2)NC(=O)[C@H](C)NC(=O)[C@H](CCC(=O)O)NC(=O)[C@H](CC(=O)O)NC(=O)[C@H](Cc2ccc(O)cc2)NC(=O)[C@H](C(C)C)NC(=O)[C@H](CC(=O)O)NC(=O)[C@H](CCCCN)NC1=O [Peptide-33] | Yes | Yes |  |  | 
14 | ESDPIVAQY [Peptide-35, Titin peptide, linear control absent MHC presentation, reference compound] | No |  | > 10 µM |  | 
15 | EVDPIGHLY [Peptide-34, MAGE-A3 antigen peptide, linear control absent MHC presentation, reference compound] | No |  | > 10 µM | lack of binding | 
16 | GGNQCWEVYDQEFCSL [Peptide-9] |  |  |  |  | 0.05 µM
